Tests used:
[1] = target: T1, dopamine-D2 receptor (human dopamine D2s) (Homo sapiens, UniProt P14416); assay: Assay for affinity for dopamine receptor: competitive inhibition of [3H]spiperone binding; conditions: 10 μM compound; 0.16 nM [3H]spiperone; CHO cells transfected with human dopamine D2s gene; mean of two experiments
T1 construct: expressed in transfected cells; host or cells: CHO cells
Procedure: Affinity of the compounds of the present invention for the dopamine-D2 receptor, which is found in the wall of the gastric tract of mammals and inhibits gastrointestinal motility, was determined by measuring competitive inhibition against the binding to the receptor of a radio-labeled ligand which is known for its affinity for the receptor. In this regard, the experiment was performed according to the method described in [Heys G et al. Mol Endocrinol. 6:920, 1992] and [Grandy D K et al. Proc Natl Acad Sci USA. 86:9762, 1989].
In tris-HCl buffer ([…], pH 7.4, 120 mM NaCl, 5 mM KCl, 2 mM CaCl2, 1 mM MgCl2) 150 μg of Chinese hamster ovary (CHO) cells transfected with a human dopamine D2s gene were incubated at 25° C. for 120 min with 0.16 nM of tritium Spiperone (^3[H] Spiperon [NEN, 250 μCi]) and 10 μM of the compound of interest of the present invention. After completion of the reaction, the reaction mixture was filtered through Whatman GF/B filter (unifilter-96, Lot: 6005177, PerkinElmer) to separate ligand-bound receptors. These bound receptors were washed three times with a Tris-HCl buffer. Then 10 mL of a scintillation cocktail (Lot: 03999, Fluka) was added and reacted for 16 hrs or longer to measure radiation activity using a beta-counter (Packcard) in order to calculate the quantity of tritium spiperone bound to the receptor. Meanwhile, 10 μM of Haloperidol (H1512, Sigma) was incubated in the presence of 0.16 nM tritium Spiperone to determine a nonspecific binding value. The experiment was independently carried out twice, and receptor affinity was calculated using the following Equation 1.
Receptor Affinity(%)={(Total CPM−Nonspecific Binding CPM−CPM of tritium Spiperone remaining after addition of interest compound of the present invention)/(Total CPM−Nonspecific Binding CPM)}×100 Equation 1
(CPM: counter per minute)

[2] = target: T2, serotonin-1B receptor (Rattus norvegicus, UniProt P28564); assay: Assay for affinity for serotonin-1B receptor: competitive inhibition of [125I]cyanopindolol binding to rat cerebral cortex membranes; conditions: 10 μM compound, 10 pM [125I]cyanopindolol, mean of two experiments
T2 construct: cell membranes of the cerebral cortex excised from male Winstar rats; from tissue; host or cells: rat cerebral cortex membranes
T2 sequence (P28564 whole entry): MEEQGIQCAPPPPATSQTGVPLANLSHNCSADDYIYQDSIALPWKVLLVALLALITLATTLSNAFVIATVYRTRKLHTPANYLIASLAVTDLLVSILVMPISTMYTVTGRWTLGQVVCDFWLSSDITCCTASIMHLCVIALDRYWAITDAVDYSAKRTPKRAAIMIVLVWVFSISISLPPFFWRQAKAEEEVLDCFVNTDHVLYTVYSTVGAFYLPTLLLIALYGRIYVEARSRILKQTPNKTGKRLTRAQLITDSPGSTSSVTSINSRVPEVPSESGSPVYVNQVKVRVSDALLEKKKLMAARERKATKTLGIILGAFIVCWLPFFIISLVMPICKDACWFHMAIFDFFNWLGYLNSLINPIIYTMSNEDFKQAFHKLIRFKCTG
Procedure: Compounds of the present invention were examined for affinity for the serotonin-1B receptor which can exert a relaxation effect on the stomach to relieve impaired gastric accommodation of functional dyspepsia patients in response to an agonist.
In a Tris-HCl buffer (50 mM Tris-HCl, pH 7.4, 120 mM NaCl, 5 mM KCl, 2 mM CaCl2, 1 mM MgCl2), 4 mg of cell membranes of the cerebral cortex excised from male Winstar rats, each weighing 175±25 g, was incubated at 37° C. for 1.5 hrs with 10 pM of ^125[I] cyanopindolol (PerkinElmer, 100 μCi) and 10 μM of the compound of interest of the present invention per well. After completion of the incubation, the incubation mixture was filtered through Whatman GF/B filter (unifilter-96, Lot: 6005177, PerkinElmer) to separate ligand-bound receptors. These bound receptors were washed three times with 5 mL of a Tris-HCl buffer. Then, 10 mL of a scintillation cocktail (Lot: 03999, Fluka) was added and reacted for 16 hrs or longer to measure radiation activity using a beta-counter (Packcard) in order to calculate the quantity of ^125[I] cyanopindolol bound to the receptor.
Meanwhile, 10 μM of serotonin (H9523, Sigma) was incubated in the presence of 10 pM of ^125[I] cyanopindolol to determine a nonspecific binding value. The experiment was independently carried out twice, and receptor affinity was calculated using the following Equation 2. […]

[3] = Gastric emptying effect on normal rat, semi-solid test meal; assay type: in vivo, Sprague-Dawley rats; conditions: for Gastric Emptying (%): 45 min before test meal, stomach weighed 35 min after meal
Procedure: Gastric emptying activity of the compounds of the present invention was examined in the following experiment.
Sprague-Dawley rats, each weighing 200˜250 g, were acclimated for one week at a temperature of 22˜24° C. and a humidity of 60-80% while a standard diet and water were provided, and then were divided into groups according to weight. Thereafter, they were starved for 24 hrs before an experiment while water was provided. From 3 hrs before the experiment, no more water was provided. […] For control 1, only 1 mL of a 3% hydroxypropylmethyl cellulose solution was used while sisapride was orally administered at a dose of 1 mg/kg in 1 mL of a 3% hydroxypropylmethyl cellulose to control 2.
After 45 min, a semi-solid test meal prepared by mashing feeds in water, was orally administered in an amount of 2 mL to each rat. After 35 min, the SD rats were killed, and the stomach containing the semi-solid test meal was excised, and weighed. Subsequently, the stomach was washed with distilled water to remove the gut content, dried, and weighed again, in order to calculate the weight of the semi-solid test meal left in the gut.
Gastric Emptying(%)=[1−(weight of semi-solid test meal left in gut/weight of semi-solid test meal at 0-time)]×100 [Equation 3]
(weight of semi-solid test meal at 0-time means weight of the semi-solid test meal left in the rat killed immediately after the administration of the semi-solid test meal)

T1 sequence (P14416 1-414 isoform P14416-2): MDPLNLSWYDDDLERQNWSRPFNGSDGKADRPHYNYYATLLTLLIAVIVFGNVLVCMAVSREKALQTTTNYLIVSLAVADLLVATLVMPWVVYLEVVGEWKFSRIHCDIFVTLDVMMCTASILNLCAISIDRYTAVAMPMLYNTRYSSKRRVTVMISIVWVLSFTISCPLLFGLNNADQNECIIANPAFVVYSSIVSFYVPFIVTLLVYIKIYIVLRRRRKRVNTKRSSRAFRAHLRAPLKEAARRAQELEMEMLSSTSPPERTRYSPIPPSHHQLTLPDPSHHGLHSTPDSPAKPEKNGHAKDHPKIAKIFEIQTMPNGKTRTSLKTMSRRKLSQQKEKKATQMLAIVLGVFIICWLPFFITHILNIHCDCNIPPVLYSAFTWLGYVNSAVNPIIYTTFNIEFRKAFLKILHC

Affinity (%) [1] [%]	Affinity (%) [2] [%]	SMILES	Gastric Emptying (%) ([3]; 10 μg/kg oral)	Gastric Emptying (%) ([3]; 10 mg/kg oral (Table 3))	increase of gastric emptying compared to control 1 (no drug) ([3]; 10 μg/kg oral, normal rat)
75		COc1ccc(C(=O)NCc2ccc(OCCN(C)C)cc2)cc1OC [Itopride, reference compound]			
25	35	COc1cc2c(cc1Oc1cc3c(cc1OC)CC[n+]1cc4c(OC)c(OC)ccc4cc1-3)C[C@@H]1NCCc3cc(OC)c(OC)c-2c31 [Compound of Example 2, (S)-3,9,10-Trimethoxy-2-(1,2,10-trimethoxy-5,6,6a,7-tetrahydro-4H-dibenzo[de,g]quinolin-9-yloxy)-5,6-dihydro-isoquino[3,2-a]isoquinolinylium]	47.3		
		COc1cc(N)c(Cl)cc1C(=O)NC1CCN(CCCOc2ccc(F)cc2)CC1OC (stereo not drawn) [Control 2, sisapride, reference compound]		68.9	
91	61	COc1cc2c(cc1Oc1cc3c(cc1OC)-c1c(OC)c(OC)cc4ccnc(c14)C3=O)CCN1Cc3c(ccc(OC)c3OC)C[C@@H]21 [Compound of Example 1, (S)-1,2,10-Trimethoxy-9-(2,9,10-trimethoxy-5,8,13,13a-tetrahydro-6H-isoquino[3,2-a]isoquinolin-3-yloxy)-dibenzo[de,g]quinolin-7-one]	62.3		roughly two-fold

— patent US20130317052A1, “QUINOLINE DERIVATIVE COMPOUND, METHOD FOR PREPARING SAME, AND PHARMACEUTICAL COMPOSITION CONTAINING SAME” (Dong-A ST Co., Ltd., priority 2010, published 2013)
